Measured values as given in PubChem BioAssay (NCI).
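In this assay, cells in 96-well plates receive the compound at five concentrations for 48 hours. Endpoints are linearly interpolated between the surrounding concentrations. Abbreviation: GI50, concentration required for 50% inhibition of growth. TGI marks complete inhibition of growth.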

Columns and labels:
Assay in all cases: NCI-60 cell line screen, 48 h
[1] = test system: DU-145 prostate
[2] = test system: NCI/ADR-RES ovarian
[3] = test system: TK-10 renal
[4] = test system: MDA-MB-435
[5] = test system: SK-MEL-2 melanoma
[6] = test system: SW-620 colon
[7] = test system: OVCAR-5 ovarian
[8] = test system: OVCAR-4 ovarian
[9] = test system: MDA-N
[10] = test system: 786-0 renal
[11] = test system: SNB-75 CNS
[12] = test system: HOP-62 NSCLC
[13] = test system: BT-549 breast
[14] = test system: MCF7 breast
[15] = test system: SK-MEL-5 melanoma
[16] = test system: SNB-19 CNS
[17] = test system: HT29 colon
[18] = test system: T-47D breast
[19] = test system: CAKI-1 renal
[20] = test system: HCC-2998 colon
[21] = test system: HCT-15 colon
[22] = test system: A549 NSCLC
[23] = test system: COLO 205 colon
[24] = test system: SK-MEL-28 melanoma
[25] = test system: SF-295 CNS
[26] = test system: HL-60(TB) leukemia
[27] = test system: U251 CNS
[28] = test system: M14 melanoma
[29] = test system: OVCAR-3 ovarian
[30] = test system: SF-539 CNS
[31] = test system: OVCAR-8 ovarian
[32] = test system: UACC-257 melanoma
[33] = test system: HOP-92 NSCLC
[34] = test system: KM12 colon
[35] = test system: EKVX NSCLC
[36] = test system: PC-3 prostate
[37] = test system: ACHN renal
[38] = test system: HCT-116 colon
[39] = test system: MOLT-4 leukemia
[40] = test system: LOX IMVI melanoma
[41] = test system: NCI-H226 lung
[42] = test system: SN12C renal
[43] = test system: IGROV1 ovarian
[44] = test system: UACC-62 melanoma
[45] = test system: NCI-H460 lung
[46] = test system: MDA-MB-231 breast
[47] = test system: SK-OV-3 ovarian
[48] = test system: UO-31 renal
[49] = test system: NCI-H23 lung
[50] = test system: RXF 393 renal
[51] = test system: SR leukemia
[52] = test system: K-562 leukemia
[53] = test system: SF-268 CNS
[54] = test system: NCI-H522 lung
[55] = test system: A498 renal
[56] = test system: CCRF-CEM leukemia
[57] = test system: HS 578T breast
[58] = test system: MALME-3M melanoma
[59] = test system: RPMI-8226 leukemia

For `CC(=O)NC1=N/C(=C/c2cc([N+](=O)[O-])ccc2O)CN1C`, the TGI [1] was > 100 µM, the TGI [2] was > 100 µM and the TGI [3] was > 100 µM. The TGI [4] was > 100 µM, the TGI [5] was > 100 µM and the TGI [6] was > 100 µM. The TGI [7] was > 100 µM, the TGI [8] was > 100 µM and the TGI [9] was > 100 µM. The TGI [10] was > 100 µM, the TGI [11] was > 100 µM and the TGI [12] was > 100 µM. The TGI [13] was > 100 µM, the TGI [14] was > 100 µM and the TGI [15] was > 100 µM. The TGI [16] was > 100 µM, the TGI [17] was > 100 µM and the TGI [18] was > 100 µM. The TGI [19] was > 100 µM, the TGI [20] was > 100 µM and the TGI [21] was > 100 µM. For the same compound, the TGI [22] was > 100 µM, the TGI [23] was > 100 µM and the TGI [24] was > 100 µM. For the same compound, the TGI [25] was > 100 µM, the TGI [26] was > 100 µM and the TGI [27] was > 100 µM. For the same compound, the TGI [28] was > 100 µM, the TGI [29] was > 100 µM and the TGI [30] was > 100 µM. The TGI [31] was > 100 µM, the TGI [32] was > 100 µM and the TGI [33] was > 100 µM. For the same compound, the TGI [34] was > 100 µM, the TGI [35] was > 100 µM and the TGI [36] was > 100 µM. For the same compound, the TGI [37] was > 100 µM, the TGI [38] was > 100 µM and the TGI [39] was > 100 µM. For the same compound, the TGI [40] was > 100 µM, the TGI [41] was > 100 µM and the TGI [42] was > 100 µM. For the same compound, the TGI [43] was > 100 µM, the TGI [44] was > 100 µM and the TGI [45] was > 100 µM. For the same compound, the TGI [46] was > 100 µM, the TGI [47] was > 100 µM and the TGI [48] was > 100 µM. The TGI [49] was > 100 µM.

`Clc1nc(Oc2ccccc2)nc(-c2cn(-c3ccccc3)c3ccccc23)n1` was tested, and the GI50 [1] was 8.6 µM, the TGI [1] was 21.8 µM and the GI50 [2] was 17.8 µM. For the same compound, the TGI [2] was 34.9 µM, the GI50 [3] was 28.7 µM and the TGI [3] was 67.1 µM. It also gave a GI50 [4] of 6.49 µM, a TGI [4] of 23.1 µM and a GI50 [5] of 4.66 µM. The TGI [5] was 18.5 µM, the GI50 [6] was 2.92 µM and the TGI [6] was 9.24 µM. It also gave a GI50 [7] of 22.9 µM, a TGI [7] of 52.7 µM and a GI50 [50] of 3.8 µM. The TGI [50] was 10.7 µM, the GI50 [8] was 6.4 µM and the TGI [8] was 18.7 µM. It also gave a GI50 [10] of 18.6 µM, a TGI [10] of 35.6 µM and a GI50 [11] of 13.7 µM. The TGI [11] was 26.6 µM, the GI50 [12] was 15.2 µM and the TGI [12] was 29.4 µM. The GI50 [13] was 17 µM, the TGI [13] was 35.6 µM and the GI50 [14] was 11.6 µM. The TGI [14] was 32.5 µM, the GI50 [51] was 0.241 µM and the TGI [51] was 0.849 µM. For the same compound, the GI50 [15] was 14.3 µM, the TGI [15] was 30.5 µM and the GI50 [16] was 19 µM. For the same compound, the TGI [16] was 35.8 µM, the GI50 [52] was 0.4 µM and the TGI [52] was 18.1 µM. The GI50 [17] was 3.36 µM, the TGI [17] was 11.5 µM and the GI50 [18] was 8.58 µM. For the same compound, the TGI [18] was 29.5 µM, the GI50 [19] was 5.69 µM and the TGI [19] was 12.9 µM. The GI50 [20] was 13.8 µM, the TGI [20] was 27.3 µM and the GI50 [53] was 4.28 µM. The TGI [53] was 13.9 µM, the GI50 [54] was 1.88 µM and the TGI [54] was 3.88 µM. For the same compound, the GI50 [21] was 5.38 µM, the TGI [21] was 18 µM and the GI50 [22] was 27.4 µM. For the same compound, the TGI [22] was > 67.4 µM, the GI50 [55] was > 47.6 µM and the TGI [55] was > 100 µM. For the same compound, the GI50 [56] was 3.99 µM, the TGI [56] was 20.3 µM and the GI50 [23] was 10.6 µM. For the same compound, the TGI [23] was 24.6 µM, the GI50 [24] was 3.92 µM and the TGI [24] was 12.1 µM. The GI50 [25] was > 44.7 µM, the TGI [25] was > 61 µM and the GI50 [26] was 0.773 µM. For the same compound, the GI50 [27] was 2.53 µM, the TGI [27] was 6.36 µM and the GI50 [28] was 5.32 µM. For the same compound, the TGI [28] was 17.1 µM, the GI50 [29] was 3.37 µM and the TGI [29] was 10.2 µM. It also gave a GI50 [30] of 16.1 µM, a TGI [30] of 30 µM and a GI50 [31] of 3.25 µM. For the same compound, the TGI [31] was 11 µM, the GI50 [32] was 9.2 µM and the TGI [32] was 25 µM. The GI50 [33] was 4.07 µM, the TGI [33] was 20.7 µM and the GI50 [57] was 4.66 µM. It also gave a TGI [57] of 18.7 µM, a GI50 [34] of 7.51 µM and a TGI [34] of 19.9 µM. It also gave a GI50 [58] of 1.89 µM, a TGI [58] of 4.82 µM and a GI50 [35] of 14.6 µM. It also gave a TGI [35] of 46.9 µM, a GI50 [36] of 5.03 µM and a TGI [36] of 19.3 µM. The GI50 [37] was 8.16 µM, the TGI [37] was 21.1 µM and the GI50 [38] was 3.64 µM. It also gave a TGI [38] of 11.8 µM, a GI50 [39] of 0.79 µM and a TGI [39] of 21.9 µM. It also gave a GI50 [40] of 2.44 µM, a TGI [40] of 5.93 µM and a GI50 [41] of 33.5 µM. For the same compound, the TGI [41] was > 62.2 µM, the GI50 [42] was 6.18 µM and the TGI [42] was 20.1 µM. For the same compound, the GI50 [43] was 2.45 µM, the TGI [43] was 6.26 µM and the GI50 [44] was 13.2 µM. The TGI [44] was 26.6 µM, the GI50 [45] was 21.4 µM and the TGI [45] was > 71.7 µM. The GI50 [46] was 5.33 µM, the TGI [46] was 15.7 µM and the GI50 [47] was 18.9 µM. It also gave a TGI [47] of 40.3 µM, a GI50 [59] of 3.29 µM and a TGI [59] of 21.5 µM. The GI50 [48] was 3.04 µM, the TGI [48] was 7.95 µM and the GI50 [49] was 7.31 µM. It also gave a TGI [49] of 22.4 µM.
